*1 amine or outer side, *2 acyl side, *3 side chain or, on linkers, in order; H or OH if unused. Where a SMILES comes first, the peptide text is derived from it. Bridges are numbered along the chain shown (N, C = ends). [ ]: non-standard residue; d: D form. The star is where a group is joined. hPhe(3,5-F2-4-CF3) = N[C@@H](CCc1cc(F)c(C(F)(F)F)c(F)c1)C(=O)O; hPhe(3-Cl-4-CF3) = N[C@@H](CCc1ccc(C(F)(F)F)c(Cl)c1)C(=O)O; NPrPhe(4-CF3) = CCCN[C@@H](Cc1ccc(C(F)(F)F)cc1)C(=O)O; NPrPhe(4-Me) = CCCN[C@@H](Cc1ccc(C)cc1)C(=O)O; NMePhe(4-Me) = CN[C@@H](Cc1ccc(C)cc1)C(=O)O; NMeGly(cPent) = CN[C@H](C(=O)O)C1CCCC1; Nva(3-Et) = CCC(CC)[C@H](N)C(=O)O; X3 = CCC[C@](C)(N[*:1])C(=O)[*:2]; NMeD = CN[C@@H](CC(=O)O)C(=O)O; NMeL = CN[C@@H](CC(C)C)C(=O)O; αMeV = CC(C)[C@](C)(N)C(=O)O; Morpholide = C1CN(*)CCO1; NMeA = CN[C@@H](C)C(=O)O; Ac5c = NC1(C(=O)O)CCCC1; Aze = O=C(O)[C@@H]1CCN1; Ac4c = NC1(C(=O)O)CCC1; NBuGly = CCCCNCC(=O)O; NEtG = CCNCC(=O)O; Sar = CNCC(=O)O
Columns and labels:
[1] = target: GDP-bound NRAS wild-type protein (Homo sapiens, UniProt P01111); test: Binding to NRAS by surface plasmon resonance (SPR), KD and KD ratio to KRAS
Outline: (§1)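 Single-cycle kinetics on GDP-loaded biotin-Avi RAS captured to ~100–300 RU; 75 s ascending injections, 100 µL/min, 30°C. HBS pH 7.4 + 10 mM MgCl2/10 µM GDP/4% DMSO. 1:1 fit, KD.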

[2] = tested on: human lung cancer strain NCI-H441; type: cell-based
Outline: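 Proliferation was scored by […] measured after the reagent was added to cultures kept at 37°C in 5% carbon dioxide.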

HRAS wild-type protein = HRAS wild-type protein (Homo sapiens, UniProt P01112); test: Binding to HRAS by surface plasmon resonance (SPR), KD and KD ratio to KRAS
Outline: as §1

[3] = ratio of KD for GDP-bound NRAS wild-type protein to KD for KRAS
[4] = ratio of KD for HRAS wild-type protein to KD for KRAS
[5] = ratio of the KD value with respect to GDP-bound NRAS wild-type protein to the KD value with respect to KRAS
[6] = ratio of the KD value with respect to HRAS wild-type protein to the KD value with respect to KRAS

Sequence of GDP-bound NRAS wild-type protein (P01111 whole entry): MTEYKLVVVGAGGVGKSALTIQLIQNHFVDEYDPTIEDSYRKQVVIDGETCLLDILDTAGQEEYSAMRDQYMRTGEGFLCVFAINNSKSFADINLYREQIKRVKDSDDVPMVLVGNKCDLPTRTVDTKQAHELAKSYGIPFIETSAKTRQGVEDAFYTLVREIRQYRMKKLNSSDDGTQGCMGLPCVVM
Sequence of HRAS wild-type protein (P01112 whole entry): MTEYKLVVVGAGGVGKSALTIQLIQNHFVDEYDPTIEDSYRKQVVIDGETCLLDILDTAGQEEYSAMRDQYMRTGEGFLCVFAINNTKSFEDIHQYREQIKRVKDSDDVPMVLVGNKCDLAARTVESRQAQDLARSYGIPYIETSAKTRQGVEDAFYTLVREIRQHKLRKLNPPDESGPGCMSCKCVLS

Row | SMILES | IC50 [2] [nM] | NRAS /KRAS [1, 3] | HRAS /KRAS (HRAS wild-type protein; [4]) | NRAS /KRAS ([1]; ratio of KD with respect to GDP-bound NRAS wild-type protein to KD with respect to KRAS) | HRAS /KRAS (HRAS wild-type protein; ratio of KD with respect to HRAS wild-type protein to KD with respect to KRAS) | NRAS /KRAS [1, 5] | HRAS /KRAS (HRAS wild-type protein; [6])
1 | CCCN1C(=O)[C@@H]2CCN2C(=O)CN(C)C(=O)[C@H]([C@@H](C)CC)NC(=O)[C@H](CC(C)C)N(C)C(=O)C[C@@H](C(=O)N2CCOCC2)N(C)C(=O)[C@H](C2CCCC2)N(C)C(=O)[C@](C)(C(C)C)NC(=O)[C@@H]2CCCN2C(=O)[C@H](CCc2cc(F)c(C(F)(F)F)c(F)c2)NC(=O)CN(C)C(=O)[C@@H]1Cc1ccc(C(F)(F)F)cc1 [PP0792] ([NMeL]I[Sar][Aze][NPrPhe(4-CF3)][Sar][hPhe(3,5-F2-4-CF3)]P[αMeV][NMeGly(cPent)][NMeD]-Morpholide; lactam N-11) | 112 | C (A compound having a KD ratio of 0.1 or more and less than 3 is denoted as C) | B (a compound having 3 or more and less than 10 is denoted as B) |  |  |  | 
2 | CCCN1C(=O)CN(CC)C(=O)CN(C)C(=O)[C@H]([C@@H](C)CC)NC(=O)[C@H](CC(C)C)N(C)C(=O)C[C@@H](C(=O)N2CCOCC2)N(C)C(=O)[C@H](C2CCCC2)N(C)C(=O)C2(CCCC2)NC(=O)[C@@H]2CCCN2C(=O)[C@H](CCc2ccc(C(F)(F)F)c(Cl)c2)NC(=O)CN(C)C(=O)[C@@H]1Cc1ccc(C)cc1 [PP0065] ([NMeL]I[Sar][NEtG][NPrPhe(4-Me)][Sar][hPhe(3-Cl-4-CF3)]P[Ac5c][NMeGly(cPent)][NMeD]-Morpholide; lactam N-11) | 4.3 | C (A compound having a KD ratio of 0.1 or more and less than 3 is denoted as C) | C (A compound having a KD ratio of 0.1 or more and less than 3 is denoted as C) |  |  |  | 
3 | CCCN1C(=O)[C@@H]2CCN2C(=O)CN(C)C(=O)[C@H](C(CC)CC)NC(=O)[C@H](CC(C)C)N(C)C(=O)C[C@@H](C(=O)N2CCOCC2)N(C)C(=O)[C@H](C2CCCC2)N(C)C(=O)C2(CCCC2)NC(=O)[C@@H]2CCCN2C(=O)[C@H](CCc2cc(F)c(C(F)(F)F)c(F)c2)NC(=O)CN(C)C(=O)[C@@H]1Cc1ccc(C(F)(F)F)cc1 [PP0804] ([NMeL][Nva(3-Et)][Sar][Aze][NPrPhe(4-CF3)][Sar][hPhe(3,5-F2-4-CF3)]P[Ac5c][NMeGly(cPent)][NMeD]-Morpholide; lactam N-11) | 40.9 | C (A compound having a KD ratio of 0.1 or more and less than 3 is denoted as C) | B (a compound having 3 or more and less than 10 is denoted as B) |  |  |  | 
4 | CCCN1C(=O)[C@@H]2CCN2C(=O)[C@H](C)N(C)C(=O)[C@H]([C@@H](C)CC)NC(=O)[C@H](CC(C)C)N(C)C(=O)C[C@@H](C(=O)N(C)C)N(C)C(=O)[C@H](C2CCCC2)N(C)C(=O)C2(CCC2)NC(=O)[C@@H]2CCCN2C(=O)[C@H](CCc2ccc(C(F)(F)F)c(Cl)c2)NC(=O)CN(C)C(=O)[C@@H]1Cc1ccc(C(F)(F)F)cc1 [PP0435] ([NMeL]I[NMeA][Aze][NPrPhe(4-CF3)][Sar][hPhe(3-Cl-4-CF3)]P[Ac4c][NMeGly(cPent)][NMeD]-NMe2; lactam N-11) | 2.6 |  |  |  |  | C (A compound having a KD ratio of 0.1 or more and less than 3 is denoted as C) | C (A compound having a KD ratio of 0.1 or more and less than 3 is denoted as C)
5 | CCCCN1CC(=O)N(C)[C@@H](Cc2ccc(C)cc2)C(=O)N(C)CC(=O)N[C@@H](CCc2ccc(C(F)(F)F)c(Cl)c2)C(=O)N2CCC[C@H]2C(=O)NC2(CCCC2)C(=O)N(C)[C@@H](C2CCCC2)C(=O)N(C)[C@H](C(=O)N2CCOCC2)CC(=O)N(C)[C@@H](CC(C)C)C(=O)N[C@@H]([C@@H](C)CC)C(=O)N(C)CC1=O [PP0021] ([NMeL]I[Sar][NBuGly][NMePhe(4-Me)][Sar][hPhe(3-Cl-4-CF3)]P[Ac5c][NMeGly(cPent)][NMeD]-Morpholide; lactam N-11) | 9.8 | C (A compound having a KD ratio of 0.1 or more and less than 3 is denoted as C) | C (A compound having a KD ratio of 0.1 or more and less than 3 is denoted as C) |  |  |  | 
6 | CC[C@H](C)[C@@H]1NC(=O)[C@H](CC(C)C)N(C)C(=O)C[C@@H](C(=O)N(C)C)N(CCC2CCCC2)C(=O)[C@H](C2CCCC2)N(C)C(=O)C2(CCC2)NC(=O)[C@@H]2CC(F)(F)CN2C(=O)[C@H](CCc2ccc(C(F)(F)F)c(Cl)c2)NC(=O)CN(C)C(=O)[C@H](Cc2ccc(F)cc2)N2CCCCC[C@@H](C2=O)N(C)C(=O)CN(C)C1=O [PP0977] | 1120 | B (a compound having 3 or more and less than 10 is denoted as B) | A (a compound having 10 or more and less than 20 is denoted as A) |  |  |  | 

The next lines start with results.

Row | IC50 [2] [nM] | SMILES | NRAS /KRAS [1, 3] | HRAS /KRAS (HRAS wild-type protein; [4]) | NRAS /KRAS ([1]; ratio of KD with respect to GDP-bound NRAS wild-type protein to KD with respect to KRAS) | HRAS /KRAS (HRAS wild-type protein; ratio of KD with respect to HRAS wild-type protein to KD with respect to KRAS) | NRAS /KRAS [1, 5] | HRAS /KRAS (HRAS wild-type protein; [6])
7 | 13 | CCO[C@@H]1C[C@H]2C(=O)NC3(CCC3)C(=O)N(C)[C@@H](C3CCCC3)C(=O)N(C)[C@H](C(=O)N(CC)CC)CC(=O)N(C)[C@@H](CC)C(=O)N[C@@H]([C@@H](C)CC)C(=O)N(C)CC(=O)N(C)[C@H]3C/C=C\CCN(C3=O)[C@@H](Cc3ccc(C(F)(F)F)cc3)C(=O)N(C)CC(=O)N[C@@H](CCc3cc(F)c(C(F)(F)F)c(F)c3)C(=O)N2C1 [PP1305] |  |  | AA (a compound having 20 or more is denoted as AA) | A (a compound having 10 or more and less than 20 is denoted as A) |  | 
8 | 16.7 | CC[C@H](C)[C@@H]1NC(=O)[C@H](CC(C)C)N(CC)C(=O)C[C@@H](C(=O)N2CCOCC2)N(C)C(=O)[C@H](C2CCCC2)N(C)C(=O)C2(CCCC2)NC(=O)[C@@H]2CCCN2C(=O)[C@H](CCc2cc(F)c(C(F)(F)F)c(F)c2)NC(=O)CN(C)C(=O)[C@H](Cc2ccc(C(F)(F)F)cc2)N2CCCC[C@@H](C2=O)N(C)C(=O)CN(C)C1=O [PP0588] |  |  |  |  | B (a compound having 3 or more and less than 10 is denoted as B) | B (a compound having 3 or more and less than 10 is denoted as B)
9 | 38.2 | CCCN1C(=O)CN(C)C(=O)CN(C)C(=O)[C@H]([C@@H](C)CC)NC(=O)[C@H](CC(C)C)N(C)C(=O)C[C@@H](C(=O)N(C)C)N(C)C(=O)[C@H](C2CCCC2)N(C)C(=O)[C@](C)(CCC)NC(=O)[C@@H]2CCCN2C(=O)[C@H](CCc2cc(F)c(C(F)(F)F)c(F)c2)NC(=O)CN(C)C(=O)[C@@H]1Cc1ccc(C(F)(F)F)cc1 [PP0737] ([NMeL]I[Sar][Sar][NPrPhe(4-CF3)][Sar][hPhe(3,5-F2-4-CF3)]P[X3][NMeGly(cPent)][NMeD]-NMe2; lactam N-11) |  |  |  |  | B (a compound having 3 or more and less than 10 is denoted as B) | C (A compound having a KD ratio of 0.1 or more and less than 3 is denoted as C)
10 | 7.3 | CCO[C@@H]1C[C@H]2C(=O)NC3(CC(F)(F)C3)C(=O)N(C)[C@@H](C3CCCC3)C(=O)N(C)[C@H](C(=O)N3CCOCC3)CC(=O)N(C)[C@@H](CC(C)C)C(=O)N[C@@H]([C@@H](C)CC)C(=O)N(C)CC(=O)N(C)[C@H]3CC=C(C)CN(C3=O)[C@@H](Cc3ccc(C(F)(F)F)cc3)C(=O)N(C)CC(=O)N[C@@H](CCc3cc(F)c(C(F)(F)F)c(F)c3)C(=O)N2C1 [PP0828] | C (A compound having a KD ratio of 0.1 or more and less than 3 is denoted as C) | C (A compound having a KD ratio of 0.1 or more and less than 3 is denoted as C) |  |  |  | 

Reference: patent publication EP4603105A1, “PHARMACEUTICAL COMPOSITION CONTAINING CYCLIC COMPOUND HAVING SELECTIVE KRAS INHIBITORY EFFECT AGAINST HRAS AND NRAS” (CHUGAI SEIYAKU KABUSHIKI KAISHA, priority 2022, dated 2024)
